Test results published in ChEMBL document CHEMBL5252570, “Synthesis and biological evaluation of 2,5-disubstituted furan derivatives containing 1,3-thiazole moiety as potential α-glucosidase inhibitors” (Bioorg Med Chem Lett, 2023).
The source made the active and inactive calls. No cut-off for these calls is given here.

Legend:
Alpha glucosidase [1] = molecular target: T1, Alpha glucosidase (Homo sapiens, UniProt O43451+P10253+P14410+Q2M2H8); test: Inhibition of alpha glucosidase (unknown origin) at 50 uM relative to control; format: protein assay
Alpha glucosidase [2] = molecular target: T1, Alpha glucosidase; test: Inhibition of alpha glucosidase (unknown origin); format: protein assay
Alpha glucosidase [3] = molecular target: T1, Alpha glucosidase; test: Inhibition of alpha glucosidase (unknown origin) using p-nitrophenyl glucopyranoside as substrate pre incubated for 10 mins followed by substrate addition and measured after 30 mins by plate reader analysis; format: protein assay
Alpha glucosidase [4] = molecular target: T1, Alpha glucosidase; test: Potency index, […] for inhibition of alpha glucosidase (unknown origin); format: protein assay
[5] = Cytotoxicity against human HepG2 cells assessed as inhibition of cell growth at 100 uM by CCK-8 assay relative to control; format: toxicity, cell-based; settings: read-out: Activity
[6] = Cytotoxicity against mouse RAW264.7 cells assessed as inhibition of cell growth at 100 uM by CCK-8 assay relative to control; format: toxicity, cell-based; settings: read-out: Activity
Alpha glucosidase [7] = molecular target: T1, Alpha glucosidase; test: Non-competitive inhibition of alpha glucosidase (unknown origin) assessed as inhibition constant using pNPG as substrate by Dixon plot analysis; format: protein assay
[8] = Cytotoxicity against human HEK293 cells assessed as inhibition of cell growth at 100 uM by CCK-8 assay relative to control; format: toxicity, cell-based; settings: read-out: Activity
Alpha glucosidase [9] = molecular target: T1, Alpha glucosidase; test: Competitive inhibition of alpha glucosidase (unknown origin) using pNPG as substrate by Lineweaver-Burk plot analysis; format: protein assay

Structure (SMILES)	inhibition (Alpha glucosidase [1]) [%]	IC50 (Alpha glucosidase [2]) [µM]	also measured
O=C(Sc1nccs1)c1ccc(-c2ccc(F)cc2)o1	43.4		
O=C(Nc1nccs1)c1ccc(-c2ccccc2[N+](=O)[O-])o1	87.7	26.943	
O=C(Sc1nccs1)c1ccc(-c2ccc(Cl)cc2)o1	84.2	4.562	
O=C(Sc1nccs1)c1ccc(-c2c(F)cccc2F)o1	83.6	8.436	
O=C(Nc1nccs1)c1ccc(-c2c(F)cccc2F)o1	21.6	148.2	
Cc1ccc(-c2ccc(C(=O)Sc3nccs3)o2)cc1	80.4	11.43	
O=C(Nc1nccs1)c1ccc(-c2ccccc2)o1	27.3	94.033	
O=C(Sc1nccs1)c1ccc(-c2cccc(F)c2)o1	87	5.392	
O=C(Sc1nccs1)c1ccc(-c2cccc([N+](=O)[O-])c2)o1	20.2		
O=C(Sc1nccs1)c1ccc(-c2ccccc2Cl)o1	88.2	1.935	
O=C(Nn1c(-c2cc3ccccc3oc2=O)cs/c1=N\c1ccc(Cl)c(Cl)c1)c1ccccc1O			IC50 (Alpha glucosidase [3]): 0.12 µM
Cc1ccc(-c2ccc(C(=O)Nc3nccs3)o2)cc1	64.6	26.495	
O=C(Sc1nccs1)c1ccc(-c2ccccc2)o1	100	2.223	
O=C(Sc1nccs1)c1ccc(-c2ccc(F)cc2F)o1	86.1	6.935	
COc1ccc(-c2ccc(C(=O)Nc3nccs3)o2)cc1	59	30.94	
N#C/N=c1\sccn1C(=O)c1ccc(-c2cccc(Cl)c2)o1		1.2	
O=C(Nc1nccs1)c1ccc(-c2ccc(Br)cc2)o1	74	24.125	
O=C(Sc1nccs1)c1ccc(-c2ccccc2[N+](=O)[O-])o1	98.5	0.645	Ratio IC50 (Alpha glucosidase [4]): 701; inhibition at 100 µM [5]: 47.2%; inhibition at 100 µM [6]: 38.1%; Ki (Alpha glucosidase [7]): 2.04 µM; inhibition at 100 µM [8]: 53.4%

Structure (SMILES)	inhibition (Alpha glucosidase [1]) [%]	IC50 (Alpha glucosidase [2]) [µM]	also measured
O=C(Nc1nccs1)c1ccc(-c2cccc(Cl)c2)o1	88.4	5.871	
O=C(Nc1nccs1)c1ccc(-c2ccc(F)cc2F)o1	34.1	77.99	
O=C(Nc1nccs1)c1ccc(-c2cccc([N+](=O)[O-])c2)o1	89.3	4.12	inhibition (Alpha glucosidase [9]): Active; inhibition at 100 µM [5]: 13.7%; inhibition at 100 µM [6]: 16.4%; Ki (Alpha glucosidase [7]): 367.24 µM; inhibition at 100 µM [8]: 28.4%
COc1ccc(-c2ccc(C(=O)Sc3nccs3)o2)cc1	78.6	14.945	
O=C(Sc1nccs1)c1ccc(-c2ccc([N+](=O)[O-])cc2)o1	85.7	8.934	
Cc1nnc(SC(=O)c2ccc(-c3cccc(F)c3)o2)s1		0.082	
CC(C)(C)c1cc(/C=N/Nc2nc(-c3ccc(Cl)cc3)cs2)cc(C(C)(C)C)c1O			IC50 (Alpha glucosidase [3]): 18.23 µM
O=C(Nc1nccs1)c1ccc(-c2ccc(Cl)cc2)o1	69.1	14.769	
O=C(Nc1nccs1)c1ccc(-c2ccc([N+](=O)[O-])cc2)o1	91.5	4.987	
O=C(Sc1nncs1)c1ccc(-c2ccc(Cl)cc2)o1		0.186	
O=C(Nc1nccs1)c1ccc(-c2cccc(F)c2)o1	88.1	6.227	
O=C(Sc1nccs1)c1ccc(-c2cccc(Cl)c2)o1	94.4	2.611	
O=C(Nc1nccs1)c1ccc(-c2ccccc2Cl)o1	59.3	18.33	
O=C(Sc1nccs1)c1ccc(-c2ccc(Br)cc2)o1	89.9	5.283	
C[C@H]1O[C@H](O[C@H]2[C@H](O)[C@@H](O)[C@@H](O[C@H]3[C@H](O)[C@@H](O)C(O)O[C@@H]3CO)O[C@@H]2CO)[C@H](O)[C@@H](O)[C@@H]1N[C@H]1C=C(CO)[C@@H](O)[C@H](O)[C@H]1O (stereo not given in full)	11.5		inhibition (Alpha glucosidase [9]): Active
O=C(Sc1nccs1)c1ccc(-c2ccccc2F)o1	83.6	5.97	
O=C(Nc1nccs1)c1ccc(-c2ccccc2F)o1	87.6	19.763	
O=C(Nc1nccs1)c1ccc(-c2ccc(F)cc2)o1	67.4	20.717	
